{
  "source": "patent US9517263B2",
  "about": "“Benzonaphthyridine-containing vaccines” (GlaxoSmithKline Biologicals SA, priority 2009, dated 2016)",
  "key": {"[1]": {"experiment": "Solubility of Compound 6A", "type": "physicochemical", "conditions": "for solubility: water, read-out: aqueous solubility"}, "Human TLR7": {"target": "T1, Human TLR7 (Homo sapiens, UniProt Q9NYK1)", "T1 construct": "expressed in transfected cells; host or cells: HEK293", "T1 sequence (Q9NYK1 27-1049)": "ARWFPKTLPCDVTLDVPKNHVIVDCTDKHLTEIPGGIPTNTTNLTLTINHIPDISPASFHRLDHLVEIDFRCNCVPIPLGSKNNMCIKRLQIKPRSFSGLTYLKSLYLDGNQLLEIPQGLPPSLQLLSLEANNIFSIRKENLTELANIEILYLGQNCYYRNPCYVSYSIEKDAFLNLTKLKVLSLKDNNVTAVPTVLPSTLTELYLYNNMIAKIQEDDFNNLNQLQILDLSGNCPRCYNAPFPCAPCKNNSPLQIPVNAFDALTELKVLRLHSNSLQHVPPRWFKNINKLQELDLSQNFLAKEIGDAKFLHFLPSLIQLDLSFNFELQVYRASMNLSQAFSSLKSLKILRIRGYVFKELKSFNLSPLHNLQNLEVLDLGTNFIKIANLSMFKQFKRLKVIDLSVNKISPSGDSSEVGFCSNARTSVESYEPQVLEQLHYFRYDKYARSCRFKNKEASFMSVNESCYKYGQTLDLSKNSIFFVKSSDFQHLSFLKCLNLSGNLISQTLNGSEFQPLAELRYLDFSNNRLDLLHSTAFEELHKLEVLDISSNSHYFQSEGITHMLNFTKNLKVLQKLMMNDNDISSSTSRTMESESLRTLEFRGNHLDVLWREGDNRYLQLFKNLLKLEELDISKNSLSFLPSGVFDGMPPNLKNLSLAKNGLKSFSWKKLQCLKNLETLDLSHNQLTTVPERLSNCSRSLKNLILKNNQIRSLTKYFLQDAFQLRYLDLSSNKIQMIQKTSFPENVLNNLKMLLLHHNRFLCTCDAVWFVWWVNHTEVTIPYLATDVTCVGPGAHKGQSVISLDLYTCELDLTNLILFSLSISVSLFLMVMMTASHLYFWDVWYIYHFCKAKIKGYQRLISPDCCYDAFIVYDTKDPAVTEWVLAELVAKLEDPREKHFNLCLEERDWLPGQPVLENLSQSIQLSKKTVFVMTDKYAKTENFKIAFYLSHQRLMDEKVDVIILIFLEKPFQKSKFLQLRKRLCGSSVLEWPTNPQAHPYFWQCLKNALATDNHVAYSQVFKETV", "experiment": "Human TLR7 EC50 in HEK293 (Table A)", "type": "cell-based"}, "[2]": {"tested_on": "mKC, MCP-1, IL-6, IL-10, IFNg and IL-5", "experiment": "Serum cytokine levels in mice (sandwich ELISA)", "type": "in vivo", "conditions": "i.m., 1, 3 and 24 hours, formulated in the PLG-based particles", "description": "Mice were also injected intramuscularly with above-described monodispersion of Compound 47 at a dose of 100 μg Compound 47. Serum cytokine levels (mKC, MCP-1, IL-6, IL-10, IFNg and IL-5) were measured at 1, 3 and 24 hours using sandwich ELISA."}, "[3]": {"experiment": "Pharmacokinetic profile of Compound 47 in mice (serum, lymph nodes, muscle; LC-MS)", "type": "in vivo", "conditions": "i.m. once, 1 or 4 mg/kg, various PLG formulations (Vials 1-5), up to 30 days"}, "[4]": {"experiment": "Compound content, recovery and encapsulation efficiency by RP-HPLC", "type": "physicochemical", "conditions": "pellet vs supernatant after 10 mM HCl, 30 min", "experimental": "Compound 47 was analyzed by Reversed Phase High Performance Liquid Chromatography (RP-HPLC) using a Waters Acquity System using C18 XTerra column (Waters Corporation) and a gradient of 90% water+0.1% TFA/10% acetonitrile+0.1% TFA to 100% acetonitrile+0.1% TFA in 6 min.\nTo determine Compound 47 concentration, 100 μL of the particle suspension described above was mixed with 900 μL of DMSO and analyzed by RP-HPLC.\nTo determine encapsulation efficiency, 100 μL of the particle suspension described above was diluted to 1 mL with 10 mM HCl and rocked for 30 min at room temperature. The resulting particle suspension was centrifuged. The pellet was then dissolved in 1 mL DMSO and analyzed on the RP-HPLC system to determine the amount of encapsulated Compound 47. The supernatant was also analyzed on the RP-HPLC system to determine the amount of non-encapsulated Compound 47."}, "MenB strain NZ98": {"tested_on": "MenB strain NZ98", "experiment": "Bactericidal assay of sera of immunized mice against the MenB strain NZ98", "type": "in vivo, N. meningitidis", "conditions": "delivered with PLG as encapsulated or as co-lyophilized, 25 or 100 μg", "description": "The PLG formulations described above (Vials 1-6) were reconstituted in 1.4 mL of water for injection with gentle mixing. 100 μL of the formulations were injected per mouse, corresponding to 10 μg of each MenB antigen and in case of formulations containing Compound 47, 25 μg or 100 μg of the adjuvant. Each mouse was immunized intramuscularly (50 μL at two sites) on days 0 and 14, and bled on day 28 and on day 56.\nFor mice injected with MenB antigen, pooled sera for each group was analyzed for bactericidal assay against the MenB strain NZ98 2 weeks post 2nd immunization.\nFor mice injected with MenB antigen, pooled sera for each group was also analyzed for bactericidal assay against the MenB strain NZ98 6 weeks post 2nd immunization."}},
  "note": "Like-named read-outs stand apart in the source and are kept apart here.",
  "data": [
    {"smiles": "Cc1ccc2c(c1)nc(N)c1ncc(CCc3ccc(OCCOCCOCCC(F)(F)P(=O)(O)O)cc3C)cc12", "note": "[Compound 6A, 3-(2-(2-(4-(2-(5-amino-8-methylbenzo[f][1,7]naphthyridin-2-yl)ethyl)-3-methylphenoxy)ethoxy)ethoxy)-1,1-difluoropropylphosphonic acid]", "values": [
      {"measurement": "solubility in dichloromethane", "setting": "[1]; dichloromethane", "result": "not soluble in dichloromethane"},
      {"measurement": "solubility", "setting": "[1]; as base form", "result": "< 400", "unit": "µg/mL"},
      {"measurement": "solubility", "setting": "[1]; pH 7, as a sodium salt", "result": "> 4000", "unit": "µg/mL"}
    ]},
    {"smiles": "COc1ccc(CCc2cnc3c(N)nc4cc(C(O)(P(=O)(O)O)P(=O)(O)O)ccc4c3c2)c(C)c1", "note": "[Compound 19A]", "values": [
      {"measurement": "EC50", "setting": "Human TLR7", "result": 23700, "unit": "nM"}
    ]},
    {"smiles": "Cc1ccc(CCc2cnc3c(N)nc4ccccc4c3c2)c(C)c1", "note": "[Compound 47, 2-(2,4-dimethylphenethyl)benzo[f][1,7]naphthyridin-5-amine]", "values": [
      {"measurement": "serum cytokine levels (mKC, MCP-1, IL-6, IL-10, IFNg and IL-5)", "setting": "[2]", "result": "low serum cytokines"},
      {"measurement": "level of Compound 47 in serum", "setting": "[3]", "result": "< 1000", "unit": "nM"},
      {"measurement": "amount of Compound 47 encapsulated in PLG particles", "setting": "[4]", "result": "> 90", "unit": "%"},
      {"measurement": "protection of the immunized mice against strain NZ98", "setting": "MenB strain NZ98", "result": "significantly enhances the protection"}
    ]}
  ]
}
